According to patent publication US12473332B2, “Modified peptides and associated methods of use” (Advanced Technologies For Novel Therapeutics, LLC, priority 2019, dated 2025):
Where no end group is shown, it is not given here.

Experiments:
[1] = target: T1, AKT (Mus musculus, UniProt P31750); assay: stereotactic injection into brain striatum, phosphorylation of AKT substrates; format: in vivo; conditions: vs DMSO hemisphere
T1 construct: from tissue; host or cells: brain striatum, in vivo
Description: After the stereotactic injection of ZaTa peptide, a decrease in the phosphorylation level of AKT substrates in the striatum of a brain hemisphere was observed as compared to the other hemisphere that was injected with DMSO as the vehicle. […] As a specific substrate, the phosphorylation level of GSK-3β at Ser-9 was also evaluated. […] The decrease was specific to the AKT phosphorylation site on GSK-3β at Ser-9, since a change in the phosphorylation level of GSK-3β at Tyr-216 or GSK-3α at Tyr-279 was not observed. Moreover, the in vivo reduction of the phosphorylation of AKT substrates was more obvious at the injection site, since a significant change in the phosphorylation of AKT substrates in the frontal cortex or cerebellum between the two hemispheres was not observed.
The phenotypic consequence of disrupting the AKT-PKAc complex was also determined. ZaTa peptide was injected into the striatum of one hemisphere of the brain and DMSO, as vehicle, was injected into the other brain hemisphere of an adult C57BL/6 mouse under anesthesia. The brain was removed and dissected. Equal protein amounts from each hemisphere were subjected to immunoprecipitation by an anti-AKT antibody. […] To compare PKAc protein levels in the ZaTa- and vehicle-treated brain hemisphere lysates, western blot analysis was conducted.

[2] = system: PKA, PKC, CDKs; assay: stereotactic injection into brain, phosphorylation of PKA, PKC and CDKs substrates; set-up: species or system mouse
Description: (§1) To analyze in vivo selectivity, ZaTa was injected into one hemisphere and DMSO in the other hemisphere, as above, and a series of western blot analyses was performed with phospho-specific antibodies which recognize a phosphorylated substrate or each one of the kinases that ZaTa inhibited at higher concentrations in vitro. […] Given the high functional and structural homology between p70S6K and AKT, the in vivo inhibitory effect of ZaTa on p70S6K was contemplated. Furthermore, the in vivo effect of ZaTa on the phosphorylation levels of substrates for PKA, PKC, CDKs using phospho-specific antibodies recognizing the phosphorylated consensus sites of these kinases was analyzed.
As a striatal specific substrate for PKA and CDK5, the phosphorylation level of DARPP-32 was determined at Thr-34 (the PKA site) or at Thr-75 (the CDK5 site) (Huang, et al. (1999) supra).

[3] = system: panel of 32 kinases; assay: in vitro kinase selectivity panel of 32 kinases; format: biochemical; conditions: at IC50 for AKT1 (0.1 μM)
Description: (§2) To test the specificity/selectivity of ZaTa as the inhibitor of AKT1 versus the other major kinases, a series of in vitro kinase assays was performed at IC50 for AKT1 and at ten times higher concentrations. A panel of the following 32 kinases was first tested in vitro using the active form of each kinase and a specific substrate: AKT2, AKT3, PKA, PKCα, PKCγ, PI3Kβ, PI3Kδ, PI3Kγ, SGK, PAK2, PAK3, SAPK2/p38, Abl, CaMKII, CDK1/cyclinB, CDK5/p35, CK1, CK2, CSK, GSK3α, GSK3β, JNK1α1, MAPK1, p70S6K, PDGFRα, PDGFRβ, PDK1, PKG1α, TrkB, JAK2, JAK3, and Syk. […] However, at ten times higher concentration, ZaTa inhibited AKT2 (63%), PI3Kδ (72%), p70S6K (64%), SGK (73%), PAK3 (83%), JAK3 (79%), TrkB (84%), and Abl (42%). To confirm the in vitro inhibitory effect on these kinases in cells, a cell-based assay was used to determine the effect of labeled ZaTa on the phosphorylation levels of well-known intracellular substrates for each kinase (Zipfel, et al. (2004) Curr. Biol. 14:1222-1231; Wang, et al. (2003) Arch. Biochem. Biophys. 410:7-15; King, et al. (1998) Nature 396:180-183; Rangone, et al. (2004)Eur. J. Neurosci. 19:273-279; Middlemas, et al. (1994)J. Biol. Chem. 269:5458-5466; Huang, et al. (1999) J. Biol. Chem. 274:7870-7878). The results of this cell-based kinase assay confirmed that ZaTa could inhibit p70S6K besides AKT. […]

[4] = target: T2, p70S6K (Homo sapiens, UniProt P23443); assay: cell-based kinase assay, phosphorylation of intracellular substrates
T2 construct: phosphorylation levels of well-known intracellular substrates for each kinase; endogenous in cells
Description: as §2

[5] = target: PAK3 (Homo sapiens, UniProt O75914); assay: in vitro kinase assay, selectivity; format: biochemical; set-up: dose or concentration left out as unconfirmed
Description: (§3) To test the specificity/selectivity of ZaTa as the inhibitor of AKT1 versus the other major kinases, a series of in vitro kinase assays was performed at IC50 for AKT1 and at ten times higher concentrations. A panel of the following 32 kinases was first tested in vitro using the active form of each kinase and a specific substrate: AKT2, AKT3, PKA, PKCα, PKCγ, PI3Kβ, PI3Kδ, PI3Kγ, SGK, PAK2, PAK3, SAPK2/p38, Abl, CaMKII, CDK1/cyclinB, CDK5/p35, CK1, CK2, CSK, GSK3α, GSK3β, JNK1α1, MAPK1, p70S6K, PDGFRα, PDGFRβ, PDK1, PKG1α, TrkB, JAK2, JAK3, and Syk. […] However, at ten times higher concentration, ZaTa inhibited AKT2 (63%), PI3Kδ (72%), p70S6K (64%), SGK (73%), PAK3 (83%), JAK3 (79%), TrkB (84%), and Abl (42%). To confirm the in vitro inhibitory effect on these kinases in cells, a cell-based assay was used to determine the effect of labeled ZaTa on the phosphorylation levels of well-known intracellular substrates for each kinase (Zipfel, et al. (2004) Curr. Biol. 14:1222-1231; Wang, et al. (2003) Arch. Biochem. Biophys. 410:7-15; King, et al. (1998) Nature 396:180-183; Rangone, et al. (2004)Eur. J. Neurosci. 19:273-279; Middlemas, et al. (1994)J. Biol. Chem. 269:5458-5466; Huang, et al. (1999) J. Biol. Chem. 274:7870-7878). The results of this cell-based kinase assay confirmed that ZaTa could inhibit p70S6K besides AKT. […] Given that most of the above-listed kinases have no known inhibitor, it is contemplated that the ZaTa could be used at micromolar concentrations in in vitro studies to inhibit the activity of the select kinases.

[6] = target: T3, SGK (Homo sapiens, UniProt O00141); assay: in vitro kinase assay, selectivity; format: biochemical; set-up: dose or concentration left out as unconfirmed
T3 construct: phosphorylation levels of well-known intracellular substrates for each kinase; endogenous in cells
Description: as §3

[7] = target: TrkB (Homo sapiens, UniProt Q16620); assay: in vitro kinase assay, selectivity; format: biochemical; set-up: dose or concentration left out as unconfirmed
Description: as §3

[8] = target: Abl (Homo sapiens, UniProt P00519); assay: in vitro kinase assay, selectivity; format: biochemical; set-up: dose or concentration left out as unconfirmed
Description: as §3

[9] = target: AKT2 (Homo sapiens, UniProt P31751); assay: in vitro kinase assay, selectivity; format: biochemical; set-up: dose or concentration left out as unconfirmed
Description: as §3

[10] = target: T4, JAK3 (Homo sapiens, UniProt P52333); assay: in vitro kinase assay, selectivity; format: biochemical; set-up: dose or concentration left out as unconfirmed
T4 construct: phosphorylation levels of well-known intracellular substrates for each kinase; endogenous in cells
Description: as §3

[11] = target: T2, p70S6K; assay: in vitro kinase assay, selectivity; format: biochemical; set-up: dose or concentration left out as unconfirmed
Description: as §3

[12] = target: AKT (Homo sapiens, UniProt P31749); assay: in vitro AKT kinase assay with Ser-9 GSK-3 GST fusion protein substrate; PKAc peptide library screen; format: biochemical; conditions: Ser-9 GSK-3 GST substrate
[13] = target: T5, Abl (Mus musculus, UniProt P00520); assay: stereotactic injection into brain, western blot with phospho-specific antibodies; format: in vivo; conditions: vs DMSO hemisphere
T5 construct: from tissue; host or cells: brain hemisphere, in vivo
Description: as §1

[14] = target: T6, p70S6K (Mus musculus, UniProt Q8BSK8); assay: as above; format: in vivo; conditions: vs DMSO hemisphere
T6 construct: from tissue; host or cells: brain hemisphere, in vivo
Description: as §1

T1 sequence (P31750 whole entry): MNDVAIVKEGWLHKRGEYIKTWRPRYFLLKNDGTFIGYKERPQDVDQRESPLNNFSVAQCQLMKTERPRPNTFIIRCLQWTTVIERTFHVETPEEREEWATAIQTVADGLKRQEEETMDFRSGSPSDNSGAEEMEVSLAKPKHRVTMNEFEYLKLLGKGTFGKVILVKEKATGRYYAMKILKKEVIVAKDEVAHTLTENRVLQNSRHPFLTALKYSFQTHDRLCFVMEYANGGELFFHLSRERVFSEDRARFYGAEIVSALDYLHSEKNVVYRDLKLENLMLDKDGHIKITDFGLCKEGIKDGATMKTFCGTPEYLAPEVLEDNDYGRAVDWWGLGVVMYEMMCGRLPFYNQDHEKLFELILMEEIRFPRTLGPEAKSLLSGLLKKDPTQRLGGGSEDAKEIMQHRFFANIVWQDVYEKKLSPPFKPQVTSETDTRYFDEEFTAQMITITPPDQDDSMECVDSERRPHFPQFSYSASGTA
AKT (Homo sapiens, UniProt P31749), sequence (P31749 whole entry, the tested form may be a part): as the sequence (P31750 whole entry) above, with N2S, S50A, A100T, R112K, T117E, T389K, N410G, D415H counted along it
T2 sequence (P23443 whole entry): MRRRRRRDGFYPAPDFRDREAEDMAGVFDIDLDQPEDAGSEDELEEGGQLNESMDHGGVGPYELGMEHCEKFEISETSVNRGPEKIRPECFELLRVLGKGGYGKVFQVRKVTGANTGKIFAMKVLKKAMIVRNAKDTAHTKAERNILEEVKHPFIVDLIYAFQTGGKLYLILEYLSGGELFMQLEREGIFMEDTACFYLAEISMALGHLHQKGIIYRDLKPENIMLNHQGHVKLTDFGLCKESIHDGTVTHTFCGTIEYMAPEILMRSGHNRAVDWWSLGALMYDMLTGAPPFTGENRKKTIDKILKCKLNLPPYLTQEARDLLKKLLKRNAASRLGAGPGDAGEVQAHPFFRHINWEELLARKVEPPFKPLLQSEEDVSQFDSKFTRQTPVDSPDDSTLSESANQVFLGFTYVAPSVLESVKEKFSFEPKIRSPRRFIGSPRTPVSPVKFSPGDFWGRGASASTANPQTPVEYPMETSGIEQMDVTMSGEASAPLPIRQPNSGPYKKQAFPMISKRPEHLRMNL
T6 sequence (Q8BSK8 whole entry): as the sequence (P23443 whole entry) above, with P12L, D18H, M488V counted along it
T4 sequence (P52333 whole entry, species assumed): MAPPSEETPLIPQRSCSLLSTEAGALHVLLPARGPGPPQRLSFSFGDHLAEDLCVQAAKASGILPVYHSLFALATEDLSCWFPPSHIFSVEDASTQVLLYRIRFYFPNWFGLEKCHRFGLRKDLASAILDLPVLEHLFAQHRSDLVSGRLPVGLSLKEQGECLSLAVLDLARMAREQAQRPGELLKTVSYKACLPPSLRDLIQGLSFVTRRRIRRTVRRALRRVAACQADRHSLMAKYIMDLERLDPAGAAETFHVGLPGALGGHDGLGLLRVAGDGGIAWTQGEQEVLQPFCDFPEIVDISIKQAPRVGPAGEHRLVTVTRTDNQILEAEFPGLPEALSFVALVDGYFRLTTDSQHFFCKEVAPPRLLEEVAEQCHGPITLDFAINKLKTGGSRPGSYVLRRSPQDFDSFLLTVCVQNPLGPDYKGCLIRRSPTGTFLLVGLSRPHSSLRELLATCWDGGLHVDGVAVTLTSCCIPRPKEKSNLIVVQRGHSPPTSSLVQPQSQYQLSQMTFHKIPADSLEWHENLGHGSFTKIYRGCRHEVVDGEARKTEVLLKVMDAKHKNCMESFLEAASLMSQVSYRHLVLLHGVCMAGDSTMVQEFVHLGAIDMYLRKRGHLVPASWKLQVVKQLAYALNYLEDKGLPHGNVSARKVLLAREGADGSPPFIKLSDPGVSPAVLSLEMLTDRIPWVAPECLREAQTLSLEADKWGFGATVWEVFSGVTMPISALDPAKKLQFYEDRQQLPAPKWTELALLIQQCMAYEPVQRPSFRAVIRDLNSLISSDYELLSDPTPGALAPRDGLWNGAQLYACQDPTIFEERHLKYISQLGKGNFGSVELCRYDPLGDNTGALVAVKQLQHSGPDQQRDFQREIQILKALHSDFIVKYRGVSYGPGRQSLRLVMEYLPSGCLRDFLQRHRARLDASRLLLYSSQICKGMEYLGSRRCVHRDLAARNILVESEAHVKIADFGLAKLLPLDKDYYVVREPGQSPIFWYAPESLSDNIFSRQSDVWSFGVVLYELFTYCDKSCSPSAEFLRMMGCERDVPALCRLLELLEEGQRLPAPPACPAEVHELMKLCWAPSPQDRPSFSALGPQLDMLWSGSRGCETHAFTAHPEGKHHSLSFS
T5 sequence (P00520 whole entry): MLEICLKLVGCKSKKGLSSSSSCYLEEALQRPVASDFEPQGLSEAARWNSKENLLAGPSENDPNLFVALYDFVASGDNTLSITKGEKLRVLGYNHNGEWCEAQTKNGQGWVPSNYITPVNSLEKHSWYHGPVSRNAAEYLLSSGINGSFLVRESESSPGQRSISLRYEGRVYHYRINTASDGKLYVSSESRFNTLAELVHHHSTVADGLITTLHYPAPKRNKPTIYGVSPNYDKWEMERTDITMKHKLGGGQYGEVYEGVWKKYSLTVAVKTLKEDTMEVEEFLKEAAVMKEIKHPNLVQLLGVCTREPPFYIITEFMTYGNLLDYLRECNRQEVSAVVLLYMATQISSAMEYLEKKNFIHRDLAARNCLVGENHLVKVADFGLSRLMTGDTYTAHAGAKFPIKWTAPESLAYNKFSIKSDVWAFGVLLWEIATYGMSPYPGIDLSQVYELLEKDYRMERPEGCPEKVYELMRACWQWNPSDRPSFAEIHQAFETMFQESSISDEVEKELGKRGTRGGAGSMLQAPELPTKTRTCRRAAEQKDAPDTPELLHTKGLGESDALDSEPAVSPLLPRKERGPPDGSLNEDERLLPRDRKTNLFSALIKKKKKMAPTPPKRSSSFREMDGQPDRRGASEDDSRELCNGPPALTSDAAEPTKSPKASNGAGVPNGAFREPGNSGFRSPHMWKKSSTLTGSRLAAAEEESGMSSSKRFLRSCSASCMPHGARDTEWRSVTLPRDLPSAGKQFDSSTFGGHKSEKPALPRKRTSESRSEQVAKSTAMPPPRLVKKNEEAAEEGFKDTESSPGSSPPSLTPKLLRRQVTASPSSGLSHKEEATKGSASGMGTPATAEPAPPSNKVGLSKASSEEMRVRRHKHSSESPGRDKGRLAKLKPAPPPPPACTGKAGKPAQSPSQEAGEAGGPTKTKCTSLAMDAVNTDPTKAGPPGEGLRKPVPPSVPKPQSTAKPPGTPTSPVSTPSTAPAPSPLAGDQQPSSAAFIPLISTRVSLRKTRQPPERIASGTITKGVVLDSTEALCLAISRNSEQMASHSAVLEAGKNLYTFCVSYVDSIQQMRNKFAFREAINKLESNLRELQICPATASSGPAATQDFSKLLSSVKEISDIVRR
AKT2, sequence (P31751 whole entry, species assumed): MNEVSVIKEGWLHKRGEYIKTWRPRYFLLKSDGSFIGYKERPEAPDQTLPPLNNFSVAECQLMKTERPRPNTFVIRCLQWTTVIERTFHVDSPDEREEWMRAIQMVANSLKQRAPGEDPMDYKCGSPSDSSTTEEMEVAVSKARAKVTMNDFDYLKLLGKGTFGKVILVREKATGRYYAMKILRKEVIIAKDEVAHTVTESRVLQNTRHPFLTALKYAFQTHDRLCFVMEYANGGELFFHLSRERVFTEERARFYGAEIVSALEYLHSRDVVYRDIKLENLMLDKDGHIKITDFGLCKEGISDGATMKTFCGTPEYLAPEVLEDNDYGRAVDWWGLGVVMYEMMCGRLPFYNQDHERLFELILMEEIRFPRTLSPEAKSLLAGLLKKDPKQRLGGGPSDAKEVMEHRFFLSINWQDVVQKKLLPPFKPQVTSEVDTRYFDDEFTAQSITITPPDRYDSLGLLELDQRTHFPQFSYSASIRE
Abl (Homo sapiens, UniProt P00519), sequence (P00519 whole entry, species assumed): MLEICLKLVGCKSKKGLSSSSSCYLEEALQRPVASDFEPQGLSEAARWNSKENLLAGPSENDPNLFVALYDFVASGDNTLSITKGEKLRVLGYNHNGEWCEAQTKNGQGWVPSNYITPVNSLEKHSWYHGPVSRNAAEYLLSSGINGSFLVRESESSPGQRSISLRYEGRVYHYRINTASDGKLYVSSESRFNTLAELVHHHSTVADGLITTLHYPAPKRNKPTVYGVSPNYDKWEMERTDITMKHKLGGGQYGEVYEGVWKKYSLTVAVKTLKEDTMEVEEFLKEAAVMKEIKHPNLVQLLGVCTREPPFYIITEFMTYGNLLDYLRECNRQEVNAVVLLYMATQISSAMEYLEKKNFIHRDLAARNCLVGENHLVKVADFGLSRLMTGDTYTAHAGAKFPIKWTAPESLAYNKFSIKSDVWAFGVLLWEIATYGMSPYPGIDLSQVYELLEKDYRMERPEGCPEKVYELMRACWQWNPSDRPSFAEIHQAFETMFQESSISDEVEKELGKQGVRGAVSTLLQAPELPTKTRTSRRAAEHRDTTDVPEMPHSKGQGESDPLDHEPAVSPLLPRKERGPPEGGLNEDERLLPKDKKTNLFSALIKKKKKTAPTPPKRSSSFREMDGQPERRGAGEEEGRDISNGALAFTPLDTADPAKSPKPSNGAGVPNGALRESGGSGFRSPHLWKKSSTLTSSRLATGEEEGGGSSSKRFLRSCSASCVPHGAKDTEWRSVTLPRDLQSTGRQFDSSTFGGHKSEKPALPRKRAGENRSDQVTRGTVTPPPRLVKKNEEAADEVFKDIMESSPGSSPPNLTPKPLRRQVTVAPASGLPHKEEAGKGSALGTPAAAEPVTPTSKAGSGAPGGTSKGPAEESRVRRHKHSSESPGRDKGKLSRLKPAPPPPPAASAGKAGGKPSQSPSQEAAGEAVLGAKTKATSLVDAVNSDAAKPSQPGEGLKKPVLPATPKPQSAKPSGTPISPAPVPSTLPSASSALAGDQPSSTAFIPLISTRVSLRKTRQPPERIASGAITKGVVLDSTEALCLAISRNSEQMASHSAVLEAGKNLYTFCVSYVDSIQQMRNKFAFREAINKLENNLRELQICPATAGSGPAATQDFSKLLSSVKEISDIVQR

AKRVKGRTWTLCGTPEY [Peptide 53, A-K-R-V-K-G-R-T-W-T-L-C-G-T-P-E-Y]
phosphorylation level of AKT substrates in vivo ([1]; one hour after stereotactic injection): significant decrease in the phosphorylation level of AKT substrates
phosphorylation level of GSK-3β at Ser-9 in vivo ([1]; stereotactic injection): specific reduction
phosphorylation level of PKA, PKC and CDKs substrates in vivo [2]: significant changes in the phosphorylation level of PKA, PKC and CDKs substrates was not observed
inhibition of panel kinases [3]: no significant inhibition
inhibition of p70S6K in cells [4]: could inhibit
inhibition [5]: 83%
inhibition [6]: 73%
inhibition [7]: 84%
inhibition [8]: 42%
inhibition [9]: 63%
inhibition [10]: 79%
inhibition [11]: 64%
inhibitory effect on catalytic activity of AKT [12]: significant inhibitory effects
inhibitory effect on catalytic activity of AKT ([12]; listed as ZaTa): significantly reduced
in vivo inhibition of Abl [13]: weaker in vivo inhibition
in vivo inhibition of p70S6K [14]: potent in vivo inhibition
